Each structure is given as a SMILES string.

For one test, the system named is MV-4-11 cells. Put plainly: MV-4-11 cell proliferation assay (ATPlite). As to conditions: 3 days, read-out: Cell based (IC50 μM) MV-4-11 (Flt-3). As for the experimental part: Compounds are assessed in a variety of cell based assays. For example BCR-FMS/BaF3, BCR-KIT/BaF3, M-NFS-60, M-07e, and BAC1.2F5 cell proliferation assays are used to assess inhibitory activity of Fms or Kit and MV-4-11 cell proliferation assay is used to assess inhibitory activity in Flt-3. Reagent and assay conditions are as follows: • BCR-FMS/BaF3 and BCR-KIT/BaF3 cells: • Maintained in RPMI containing 10% FBS, 1% PenStrep, 1% NEAA, and 1% L-Glutamine, supplemented with 1 mg/mL G418 and 5% WEHI-CM (or recombinant murine IL-3). • Confluent cells are split 1:50 to 1:100 every 3-4 days. • M-NFS-60 cells (ATCC #CRL-1838): • Maintained in RPMI containing 10% FBS, 1% Hepes, 1% NaPyruvate, and 0.45% Glucose, supplemented with 62 ng/mL murine M-CSF. • Confluent cells are split 1:20 every 3-4 days. • M-07e cells (DSMZ #ACC 104): • Maintained in IMDM containing 10% FBS, supplemented with either 200 ng/mL human SCF or […] SCF (R&D Systems 255-SC). • Confluent cells are split 1:5 to 1:10 every 3-4 days. • BAC1.2F5 cells: • Maintained in Alpha-MEM containing 10% Newborn Calf Serum (Invitrogen #26010-074) supplemented with 36 ng/mL murine M-CSF. • Confluent cells are split 1:4 every 3-4 days. • MV-4-11 cells: • Maintained in Iscove's Modified Dulbecco's Medium containing 10% FBS. • Confluent cells are split 1:4 every 3-4 days. On day 1, cells are counted, then centrifuged in a conical tube for 5 minutes at 1000 rpm. The supernatant is removed and cells are re-suspended as follows: • BCR-FMS/BaF3 and BCR-KIT/BaF3: resuspend in growth media+1 mg/mL G418 (without WEHI/IL-3) to 2×10^5 cells/mL. • M-NFS-60: resuspend in growth media +62 ng/mL murine M-CSF to 5×10^5 cells/mL. • M-07e: resuspend in growth media +200 ng/mL human SCF to 5×10^5 cells/mL. • BAC1.2F5: resuspend in growth media +36 ng/mL murine M-CSF to 1.4×10^5 cells/mL. • MV-4-11: resuspend in growth media +10% FBS to 5×10^5 cells/mL. The cells are plated (50 μL) in each well of a 96-well dish (Corning 3610) and incubated at 37° C. in 5% CO2 overnight, cells plated to a final concentration of cells as follows: • BCR-FMS/BaF3 and BCR-KIT/BaF3: 10,000 cells per well. • M-NFS-60: 25,000 cells per well. • M-07e: 25,000 cells per well. • BAC1.2F5: 7,000 cells per well. • MV-4-11: 25,000 cells per well. On day 2, compound at a maximum concentration of 5 mM is serially diluted 1:3 for a total of 8 point titration with DMSO as a control. A 1 μL aliquot of each dilution point is added to 249 μL growth media and 50 μL is added to a well containing cells, providing 10 μM compound for the maximum concentration point. The cells are incubated for 3 days at 37° C. in 5% CO2. On day 5, ATPlite 1 step Luminescence Assay System (Perkin Elmer #6016739) is brought to room temperature along with the cell cultures. ATPlite is added to each well as follows: • BCR-FMS/BaF3 and BCR-KIT/BaF3: 25 μL per well. • M-NFS-60: 25 μL per well. • M-07c: 40 μL per well. • BAC1.2F5: 50 μL per well. • MV-4-11: 40 μL per well. The cells are incubated at room temperature for 10 minutes, then luminescence is read on Safire reader. The measured luminescence correlates directly with cell number, such that the reading as a function of compound concentration is used to determine the IC50 value.
One may read the IC50 as the point on the concentration scale where inhibition reaches its midpoint. For `Clc1cnc2[nH]cc(Cc3ccc(NCc4ccc(Cl)nc4)nc3)c2c1` [Compound P-2003], the IC50 was greater than 0.1 µM.

The test is the same for the next values; noted with them: Homo sapiens, MV4-11, 72 h, 3 days, read-out: Cell based (IC50 μM) MV-4-11 (Flt-3).
Consider `COc1ccc(CNc2ccc(Cc3c[nH]c4ncc(C)cc34)c(F)n2)cn1` [Compound P-2029, [6-Fluoro-5-(5-methyl-1H-pyrrolo[2,3-b]pyridin-3-ylmethyl)-pyridin-2-yl]-(6-methoxy-pyridin-3-ylmethyl)-amine], for which the IC50 is less than 0.1 µM.
The same measure, in the same setting: the value for `COc1cnc2[nH]cc(Cc3ccc(NCc4ccc(OC)nc4)nc3F)c2c1` [Compound P-2030, [6-Fluoro-5-(5-methoxy-1H-pyrrolo[2,3-b]pyridin-3-ylmethyl)-pyridin-2-yl]-(6-methoxy-pyridin-3-ylmethyl)-amine] was less than 0.1 µM; that for `Cc1cnc2[nH]cc(Cc3ccc(NCc4ccc(C(F)(F)F)nc4)nc3F)c2c1` [Compound P-2031, [6-Fluoro-5-(5-methyl-1H-pyrrolo[2,3-b]pyridin-3-ylmethyl)-pyridin-2-yl]-(6-trifluoromethyl-pyridin-3-ylmethyl)-amine] was less than 0.1 µM.
Still for that read-out and setting: the figure for `COc1cnc2[nH]cc(Cc3ccc(NCc4ccc(Cl)cc4)nc3F)c2c1` [Compound P-2032, (4-Chloro-benzyl)-[6-fluoro-5-(5-methoxy-1H-pyrrolo[2,3-b]pyridin-3-ylmethyl)-pyridin-2-yl]-amine] is less than 0.1 µM; for `COc1cnc2[nH]cc(Cc3ccc(NCc4ccccc4Cl)nc3F)c2c1` [Compound P-2034, (2-chloro-benzyl)-[6-fluoro-5-(5-methoxy-1H-pyrrolo[2,3-b]pyridin-3-ylmethyl)-pyridin-2-yl]-amine] it is greater than 0.1 µM; for `COc1ccnc2[nH]cc(Cc3ccc(NCc4ccc(Cl)cc4)nc3F)c12` [Compound P-2037, (4-Chloro-benzyl)-[6-fluoro-5-(4-methoxy-1H-pyrrolo[2,3-b]pyridin-3-ylmethyl)-pyridin-2-yl]-amine] it is greater than 0.1 µM.
Same read-out and setting: the value for `COc1ccc(CNc2ncc(Cc3c[nH]c4ncc(Cl)cc34)cn2)cn1` [Compound P-2038, [5-(5-Chloro-1H-pyrrolo[2,3-b]pyridin-3-ylmethyl)-pyrimidin-2-yl]-(6-methoxy-pyridin-3-ylmethyl)-amine] was less than 0.1 µM; that for `Fc1nc(NCc2ccc(Cl)cn2)ccc1Cc1c[nH]c2ncccc12` [Compound P-2044, (5-Chloro-pyridin-2-ylmethyl)-[6-fluoro-5-(1H-pyrrolo[2,3-b]pyridin-3-ylmethyl)-pyridin-2-yl]-amine] was less than 0.1 µM; that for `COc1ccc(CNc2ncc(Cc3c[nH]c4ncc(C)cc34)cn2)cn1` [Compound P-2057, (6-Methoxy-pyridin-3-ylmethyl)-[5-(5-methyl-1H-pyrrolo[2,3-b]pyridin-3-ylmethyl)-pyrimidin-2-yl]-amine] was less than 0.1 µM.
With `COc1ncc(CNc2ccc(Cc3c[nH]c4ncc(Cl)cc34)c(F)n2)cc1F` [Compound P-2165, [5-(5-Chloro-1H-pyrrolo[2,3-b]pyridin-3-ylmethyl)-6-fluoro-pyridin-2-yl]-(5-fluoro-6-methoxy-pyridin-3-ylmethyl)-amine], the IC50 is greater than 0.1 µM.

Source of the values: patent publication US9096593B2, “Compounds and methods for kinase modulation, and indications therefor” (Plexxikon Inc., priority 2009, dated 2015).
